Assay results reported in ChEMBL document CHEMBL1151653, “13-Deoxycarminomycin, a new biosynthetic anthracycline” (J Nat Prod, 1985).
≈ marks a conversion by molar mass, not a printed value.

What was measured:
Bacillus subtilis = test: Antimicrobial activity against Bacillus subtilis ATCC 6633 by tube dilution method; assay type: functional
Staphylococcus aureus [1] = test: Antimicrobial activity against Staphylococcus aureus 209 P by tube dilution method; assay type: functional
Staphylococcus aureus [2] = test: Antimicrobial activity against drug resistant Staphylococcus aureus isolate 153 producing beta lactamase by tube dilution method; assay type: functional
Escherichia coli = test: Antimicrobial activity against Escherichia coli B ATCC 11303 by tube dilution method; assay type: functional
Micrococcus luteus = test: Antimicrobial activity against Sarcina lutea ATCC 9341 by tube dilution method; assay type: functional
HeLa [3] = test: Cytotoxicity against human HeLa cells assessed as colony formation at 12.5 ng/ml relative to control; assay type: functional
HeLa [4] = test: Cytotoxicity against human HeLa cells assessed as colony formation at 6.2 ng/ml relative to control; assay type: functional
HeLa [5] = test: Cytotoxicity against human HeLa cells assessed as colony formation at 3.1 ng/ml relative to control; assay type: functional
HeLa [6] = test: Cytotoxicity against human HeLa cells assessed as colony formation at 1.5 ng/ml relative to control; assay type: functional
HeLa [7] = test: Cytotoxicity against human HeLa cells assessed as inhibition of colony formation relative to control; assay type: functional; settings: read-out: ID50 (the source's name)
P388 [8] = test: Cytotoxicity against mouse P388 cells; assay type: functional; settings: read-out: ID50 (the source's name)
P388 [9] = test: Cytotoxicity against doxorubicin resistant mouse P388 cells; assay type: functional; settings: read-out: ID50 (the source's name)
P388 [10] = test: Antitumor activity against mouse P388 cells xenografted in mouse assessed as median survival time at 0.4 mg/kg, ip relative to control; assay type: functional; settings: route intraperitoneal
P388 [11] = test: Antitumor activity against mouse P388 cells xenografted in mouse assessed as median survival time at 0.6 mg/kg, ip relative to control; assay type: functional; settings: route intraperitoneal
P388 [12] = test: Antitumor activity against mouse P388 cells xenografted in mouse assessed as median survival time at 1 mg/kg, ip relative to control; assay type: functional; settings: route intraperitoneal
P388 [13] = test: Antitumor activity against mouse P388 cells xenografted in mouse assessed as median survival time at 1.5 mg/kg, ip relative to control; assay type: functional; settings: route intraperitoneal
Mus musculus [14] = test: Toxicity in mouse P388 cells xenografted mouse assessed as induction of death at 0.4 mg/kg, ip; assay type: organism-based; design: dose 0.4 mg/kg, route intraperitoneal; settings: in vivo
Mus musculus [15] = test: Toxicity in mouse P388 cells xenografted mouse assessed as induction of death at 0.6 mg/kg, ip; assay type: organism-based; design: dose 0.6 mg/kg, route intraperitoneal; settings: in vivo
Mus musculus [16] = test: Toxicity in mouse P388 cells xenografted mouse assessed as induction of death at 1.5 mg/kg, ip; assay type: organism-based; design: dose 1.5 mg/kg, route intraperitoneal; settings: in vivo
HeLa [17] = test: Cytotoxicity against human HeLa cells assessed as inhibition of colony formation at 25 ng/ml relative to control; assay type: functional; design: scale not given: the % may be the effect or the level left
P388 [18] = test: Antitumor activity against mouse P388 cells xenografted in mouse assessed as median survival time at 2.9 mg/kg, ip relative to control; assay type: functional; settings: route intraperitoneal
P388 [19] = test: Antitumor activity against mouse P388 cells xenografted in mouse assessed as median survival time at 4.4 mg/kg, ip relative to control; assay type: functional; settings: route intraperitoneal
P388 [20] = test: Antitumor activity against mouse P388 cells xenografted in mouse assessed as median survival time at 6.6 mg/kg, ip relative to control; assay type: functional; settings: route intraperitoneal
Mus musculus [21] = test: Toxicity in mouse P388 cells xenografted mouse assessed as induction of death at 2.9 mg/kg, ip; assay type: organism-based; design: dose 2.9 mg/kg, route intraperitoneal; settings: in vivo
Mus musculus [22] = test: Toxicity in mouse P388 cells xenografted mouse assessed as induction of death at 4.4 mg/kg, ip; assay type: organism-based; design: dose 4.4 mg/kg, route intraperitoneal; settings: in vivo

| SMILES | Activity (HeLa [3]) | Activity (HeLa [4]) | Activity (HeLa [5]) | Activity (HeLa [6]) | IC50 (HeLa [7]) | IC50 (P388 [8]) | IC50 (P388 [9]) | further results |
| --- | --- | --- | --- | --- | --- | --- | --- | --- |
| CC[C@]1(O)Cc2c(O)c3c(c(O)c2[C@@H](O[C@H]2C[C@H](N)[C@H](O)[C@H](C)O2)C1)C(=O)c1c(O)cccc1C3=O | 36% | 55% | 90% | 126% | 0.0062 µg/mL (≈ 0.0124 µM) | 0.0015 µg/mL (≈ 0.003 µM) | 0.004 µg/mL (≈ 0.00801 µM) | MIC (Bacillus subtilis): 6.25 µg/mL (≈ 12.5 µM); MIC (Staphylococcus aureus [1]): 12.5 µg/mL (≈ 25 µM); MIC (Staphylococcus aureus [2]): 25 µg/mL (≈ 50 µM); MIC (Escherichia coli): 3.12 µg/mL (≈ 6.25 µM); MIC (Micrococcus luteus): 1.56 µg/mL (≈ 3.12 µM); Activity (P388 [10]): 136%; Activity (P388 [11]): 150%; Activity (P388 [12]): 163%; Activity (P388 [13]): 109%; Activity (Mus musculus [14]): Non-toxic; Activity (Mus musculus [15]): Non-toxic; Activity (Mus musculus [16]): Toxic |
| CC(=O)[C@]1(O)Cc2c(O)c3c(c(O)c2[C@@H](O[C@H]2C[C@H](N)[C@H](O)[C@H](C)O2)C1)C(=O)c1c(O)cccc1C3=O [CARUBICIN] | 0% | 3% | 33% | 120% | 0.0031 µg/mL (≈ 0.00604 µM) | 0.007 µg/mL (≈ 0.0136 µM) | 0.004 µg/mL (≈ 0.00779 µM) |  |
| COc1cccc2c1C(=O)c1c(O)c3c(c(O)c1C2=O)C[C@@](O)(C(C)=O)C[C@@H]3O[C@H]1C[C@H](N)[C@H](O)[C@H](C)O1 [DAUNORUBICIN] | 48% | 123% |  |  | 0.0125 µg/mL (≈ 0.0237 µM) | 0.0095 µg/mL (≈ 0.018 µM) | 0.75 µg/mL (≈ 1.42 µM) | Activity (HeLa [17]): 13%; T/C (P388 [18]): 177%; T/C (P388 [19]): 190%; T/C (P388 [20]): 168%; Activity (Mus musculus [21]): Non-toxic; Activity (Mus musculus [22]): Non-toxic |
